In patent US4883863A, “Tripeptide derivatives and antiplasmin agents containing the same” (Nitto Boseki Co., Ltd., priority 1987, dated 1989) one finds IC50 data, which are given here for two compounds.

Where a name gives a salt, the structure may show the parent alone. Where a SMILES comes first, the peptide text is derived from it. [ ]: non-standard residue; d: D form. The star is where a group is joined. Tos = Cc1ccc(S(=O)(=O)*)cc1; Moc = COC(=O)*; For = O=C*

The IC50 is the concentration that gives 50% inhibition.

The target of one experiment is T1, human Factor Xa (Homo sapiens, UniProt P00742).
T1 construct: purchased Boehringer Manheim Co., Ltd
T1 sequence (P00742 235-488 limits assumed): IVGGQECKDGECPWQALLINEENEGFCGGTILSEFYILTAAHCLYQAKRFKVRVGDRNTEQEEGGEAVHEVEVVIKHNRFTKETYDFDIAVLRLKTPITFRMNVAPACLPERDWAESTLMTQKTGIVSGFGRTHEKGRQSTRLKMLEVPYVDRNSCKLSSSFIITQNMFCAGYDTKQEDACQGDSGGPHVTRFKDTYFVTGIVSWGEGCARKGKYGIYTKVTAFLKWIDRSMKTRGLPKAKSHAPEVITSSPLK
T1 sequence (P00742 41-179 partner limits assumed): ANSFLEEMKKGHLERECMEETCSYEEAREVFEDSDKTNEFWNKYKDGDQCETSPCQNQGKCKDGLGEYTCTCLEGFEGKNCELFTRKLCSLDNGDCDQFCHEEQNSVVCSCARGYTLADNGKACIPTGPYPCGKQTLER
Put plainly: Factor Xa-inhibiting activity, synthetic substrate PS-2000. The experiment is classed as biochemical. The conditions noted are these: Table 4; PS-2000, pH 8.5, 37° C. The source says:
Synthetic substrates used for testing the inhibitory activity of the inhibitors on decomposition of substrates by the enzymes were as follows. For plasmin, PS-994 (H--D--Lys(Tos)--Phe--Lys--CHA·2HCl, mfd. by NITTO BOSEKI Co., Ltd.) was used; for thrombin and trypsin, PS-915 (H--D--Phe--Pro--Arg--CHA·2HCl, mfd. by NITTO BOSEKI Co., Ltd.); for Factor Xa, PS-2000 (Z--D--Lys--(HCO)--Gly--Arg--CHA·HCl, mfd. by NITTO BOSEKI Co., Ltd.); and for kallikrein, S-2302 (H--D--Pro--Phe--Arg--pNA, mfd., by Kabi Co., Ltd.).
As plasmin, standard plasmin of Sankyo Color Test α2 -D1 Kit was used in an amount of 0.3CU/ml. As thrombin, that of Sankyo Color Test ATIII kit was used in an amount of 1.2 NIHU/ml. As trypsin, that of cord 3703 of Worthington was used in an amount of 2 μg/ml. As human Factor Xa, that of Boehringer Manheim Co., Ltd. was used in an amount of 0.25 U/ml. As human plasma kallikrein, that of Kabi Co., Ltd. was used in an amount of 0.12 U/ml. As terminating color reagents, those for Sankyo Color Test Kit were used. The reactions were carried out at 37° C. unless otherwise specified.
Each of aqueous solutions (1 ml) of the inhibitors which solutions were various in their respective concentrations was added to 0.3 ml of a buffer solution (a 150 mM aqueous sodium chloride solution containing 50 mM Tris, pH 8.5 ), and the resulting solution was heated for 5 minutes. Then, 0.1 ml of a Factor Xa solution (a 150 mM aqueous sodium chloride solution containing 50 mM Tris and 20 mM calcium chloride, pH 8.5) was added, followed by incubation for 5 minutes. Subsequently, a 5% polyvinyl pyrrobidone solution (0.1 ml) containing 10 mM PS-2000 was added, followed by incubation for 5 min. Thereafter, 2 ml of terminating color reagent was added. After standing for 10 minutes, absorbance at 700 nm was measured and IC50 was determined in the manner described above.

The target in the next experiment is plasmin (Homo sapiens, UniProt P00747). Put plainly: Inhibitory activity on fibrinogen decomposition by plasmin (natural substrate). The experiment is classed as biochemical. Also noted: purchased Sankyo (Color Test α2 -D1 Kit). The conditions noted are these: Table 4; 2% fibrinogen, pH 7.2, 37° C. How it is done:
The determination was carried out by a modification of the method described in Takaaki Aoyagi. "Koso Sogai Busshitsu (Enzyme Inhibiting Substances)" Kyoritsu Zensho, p. 12.
To 0.3 ml of phosphate buffer (pH 7.2) was added 0.1 ml of an aqueous solution of each inhibitor, and the resulting solution was heated at 37° C. for 5 minutes. Then, 0.1 ml of a plasmin solution (12 CU/ml) was added, followed by incubation for 5 minutes. Subsequently, 0.7 ml of phosphate buffer (pH 7.2) containing 2% fibrinogen was added, followed by incubation for 15 minutes. After completion of the reaction, a 12% aqueous hydrochloride acid solution (1.5 ml) containing 6% trichloroacetic acid was added, and the resulting mixture was lightly shaken, allowed to stand at room temperature for 15 minutes, and then centrifuged (3000 r.p.m., 10 minutes). The absorbance of the supernatant was measured at 280 nm, and a concentration of the inhibitor at which the absorbance was the same as when the amount of the enzyme added was reduced by half was determined as IC50.

Sequence of plasmin (P00747 581-810 limits assumed, species assumed): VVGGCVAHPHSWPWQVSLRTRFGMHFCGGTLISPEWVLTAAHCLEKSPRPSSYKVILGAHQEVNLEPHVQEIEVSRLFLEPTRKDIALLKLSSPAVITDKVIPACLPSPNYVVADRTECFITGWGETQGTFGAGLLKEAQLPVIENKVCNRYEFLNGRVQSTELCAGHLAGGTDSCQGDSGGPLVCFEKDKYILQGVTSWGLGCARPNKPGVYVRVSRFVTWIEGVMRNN
Sequence of plasmin (P00747 97-580 partner limits assumed, species assumed): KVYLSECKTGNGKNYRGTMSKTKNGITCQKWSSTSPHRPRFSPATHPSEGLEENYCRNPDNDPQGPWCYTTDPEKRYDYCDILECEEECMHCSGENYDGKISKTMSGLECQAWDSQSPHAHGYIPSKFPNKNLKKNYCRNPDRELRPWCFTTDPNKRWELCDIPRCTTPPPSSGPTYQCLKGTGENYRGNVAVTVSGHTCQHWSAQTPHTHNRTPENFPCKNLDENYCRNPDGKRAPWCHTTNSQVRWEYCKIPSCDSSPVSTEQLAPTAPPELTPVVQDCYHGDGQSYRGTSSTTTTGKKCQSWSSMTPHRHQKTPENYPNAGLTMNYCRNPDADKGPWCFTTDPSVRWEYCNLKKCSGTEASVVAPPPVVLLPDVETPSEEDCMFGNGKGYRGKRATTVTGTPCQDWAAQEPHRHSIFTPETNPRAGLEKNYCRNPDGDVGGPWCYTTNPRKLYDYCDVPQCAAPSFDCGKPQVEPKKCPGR

In the case of `COC(=O)N[C@H](CCCCNS(=O)(=O)c1ccc(C)cc1)C(=O)N[C@@H](Cc1ccccc1)C(=O)N[C@H](C=O)CCCCN` [Compound 2, N-α-Methoxycarbonyl-N-ε-(p-tosyl)-D-lysyl-L-phenylalanyl-L-lysinal hydrochloride] (Moc-[dK](Tos)-Phe-Lys-aldehyde), the IC50 at human Factor Xa came out at 22 µM; on plasmin, 0.13 µM.

For `Cc1ccc(S(=O)(=O)NCCCC[C@@H](NC=O)C(=O)N[C@@H](Cc2ccccc2)C(=O)N[C@H](C=O)CCCCN)cc1` [Compound 4, N-α-Formyl-N-ε-(p-tosyl)-D-lysyl-L-phenylalanyl-L-lysinal hydrochloride] (For-[dK](Tos)-Phe-Lys-aldehyde), the IC50 against human Factor Xa is 85 µM; at plasmin, 0.19 µM.
